Assay results as given in US7611863B2, “Selective staining of biomembranes using voltage-sensitive dyes” (Max-Planck-Gesellschaft zur Foerderung der Wissenschaften …, priority 2004, dated 2009).

Legend:
[1] = tested on: HEK 293 cells expressing fusion protein of plasma membrane anchor and PLAP; experiment: Staining of HEK 293 cells through overexpressed membrane-bound phosphatase; assay type: cell-based
Description: FIG. 13A to C: Staining of transfected HEK 293 cells with a voltage sensitive dye by activation of binding through an overexpressed, membrane-bound phosphatase. HEK 293 cells were cotransfected with a vector coding for GFP and a vector coding for a fusion protein of a plasma membrane anchor and phosphatase from the human placenta. A. fluorescence image showing the GFP fluoresence of a transfected cell (excitation filter 450/50 nm, emission filter 510 nm longpass; dichroic mirror: 505 nm). B. The voltage sensitive fluorescent dye Di-8-phosphato-ASPBS (cf. FIG. 11, bottom) was added to the incubation medium. […] C. […] The images shown are optimized for contrast and intensity.
(§1) FIG. 16. Genetically Targeted Staining of HEK293 cells with 1 mM Di-10P-ASPBS. A mixture of stable clones either expressing the membrane-bound phosphatase construct or cytosolic GFP were cultured on the same dish. (A) From left to right: (i) Brightfield image of cells. (ii) Fluorescence image of cells showing cells expressing cytosolic GFP (excitation filter 450/50 nm, emission filter 510 nm, dichroic mirror 505 nm). (iii) Cells expressing phosphatase as obtained by subtraction of GFP expressing cells from image i. (iv) Fluorescence image of cells with filters exc. 535/50 nm, em. 610/75 nm; dichroic mirror 535 nm. The image is normalized to the same level as in row B. (v) autoleveled image iv, showing fluorescence crosstalk of GFP. (B) Enzyme induced staining of cells as measured with filter set exc. 535/50 nm, em. 610/75 nm; dichroic mirror 535 nm. The membrane fluorescence increases over time. (C). Inverted and contrast-enhanced fluorescence images corresponding to row B. (D) Difference images. The image A/iv was subtracted from the images in row B. The resulting images were inverted and contrast was enhanced.
as §1, with “17.” for “16.”, “200 nM Di-12P-ASPBS.” for “1 mM Di-10P-ASPBS.”, “difference” for “and contrast-enhanced fluorescence images corresponding to row B. (D) Difference”, “enhanced. (D) Contrast enhanced images of row C.” for “enhanced.”
Enzyme induced staining. The dye precursors Di-10P-ASPBS and Di-12P-ASPBS were used to effect enzyme induced staining on cells. To test whether the staining is selective, a mixture of two cell populations was cultured in the same dish. One of these stably expressed the phosphatase construct, while the other was stably expressing GFP as a negative marker.

[2] = Enzyme induced staining of giant vesicles; assay type: biochemical; conditions: giant POPC vesicles, 9.8 μM dye phosphate, PLAP added
Method: Enzyme induced staining of giant vesicles. Giant POPC vesicles were prepared by electroswelling^27,28. 5 μl of a 2 mM lipid solution in diethylether/methanol (9:1, v/v) were applied to a pair of planar electrodes of indium tin oxide coated with 70 nm of silica. After evaporation of the solvent under reduced pressure (0.1 mbar), 2 ml of 300 mM sucrose were added and giant vesicle formation was promoted by applying AC voltage to the electrodes. After formation was complete, vesicles were transferred to 35 mm polypropylene cell culture dishes (BD Biosciences Europe, Le Pont de Claix, France) and diluted in the same buffer. They were used the same day.
For enzyme kinetic measurements at room temperature, 400 μl of the giant vesicle stock solution were transferred to a culture dish containing 3,600 μl buffer (20 mM Tris, 100 mM NaCl, 120 mM Glucose, pH 8.1). […] The fluorescence of a selected giant vesicle with a diameter of 10 to 40 μm was observed using a microscope (Axioskop, Zeiss, Oberkochen, Germany) equipped with a 100 water immersion objective and a b/w CCD camera (Sony ICX 285 Chip, Theta System, Gröbenzell, Germany). […] The fluorescence was detected through the dichroic mirror and a long pass filter (510 nm). […] Images were recorded every 10 or 20 seconds before and after addition of the phosphatase. […]

| ratio of fluorescence intensities F∞/F0 [2] | Molecule | selectivity of staining among precursor dyes ([1]; HEK293 and MDCK cells overexpressing ArtPlasMA-PLAP, Di-8P, Di-10P, Di-12P compared) | staining intensity and confinement to phosphatase expressing cells ([1]; compared with Di-10P-ASPBS) | enzyme induced membrane staining in mixed cell populations ([1]; phosphatase clones and GFP clones in same dish, 1 mM Di-10P-ASPBS, 200 nM Di-12P-ASPBS) |
| --- | --- | --- | --- | --- |
|  | Di-12-phosphato-ASPBS [Di-12P-ASPBS] | best selectivity | distinctly better | allowed enzyme induced membrane staining |
| 9-13 | CCCCN(CCCC)c1ccc(/C=C/c2cc[n+](CCCOP(=O)([O-])O)cc2)cc1 [Di-4-ASPP phosphate] |  |  |  |
